# Assay results reported in US20210284638A1 (Saint Louis University, priority 2018, published 2021).
# pIC50: −log10 of the molar value. Counter-ions that a name gives are not always drawn.
# Experiments:
# [1] = molecular target: T1, Recombinant human integrin αVβ3 (Homo sapiens, UniProt P05106+P06756); assay: Solid Phase Receptor Assay for αVβ3 function; format: binding; settings: plate-bound human vitronectin; read-out: αVβ3 SPRA IC50
# T1 construct: purchased R&D Systems 3050-AV
# Description: C. […] Wells were washed 3 times with 150 μL TBS+ and then 150 μL of blocking buffer (TBS+ with 1% bovine serum albumin, Sigma A7906) was added. The plate was incubated for 1 hr at 37° C. and then washed 3× with TBS+ buffer. […] Compounds were diluted to 20 μM and then 1 μL was added to each well of the plate according to a standard template with each sample repeated in triplicate. After incubation for two hours at room temperature, the plate was washed 3× with 150 μL of TBS+ buffer. To each well, 50 μL of biotinylated anti-αV antibody (R&D Systems, BAF1219) at 0.5 μg/mL in TBS+/0.1% BSA were added and the plate covered and incubated for 1 hr at room temperature. After washing the plate 3× with 150 μL of TBS+ buffer, 50 μL of streptavidin-conjugated horseradish peroxidase (R&D Systems, DY998) diluted in TBS+ blocking buffer were added to the wells and the plate incubated for 20 min at room temperature. The plate was washed 3× with TBS+ buffer followed by 50 μL of TMB substrate (Sigma, T4444) added to each well in the dark and the plate was incubated for 25 min at room temperature. 25 μL of 1.0 M phosphoric acid was added as a stop solution and the plates were read at 450 nm using a Spectramax plate reader.
# [2] = molecular target: T2, Recombinant human integrin αvβ1 (Homo sapiens, UniProt P05556+P06756); assay: Solid Phase Receptor Assay (SPRA) for αVβ1 function; format: binding; settings: plate-bound human fibronectin
# T2 construct: purchased R&D Systems 6579-AV
# Description: B. Solid Phase Receptor Assay (SPRA) for αVβ1 Function
# Wells were washed 3 times with 150 μL TBS+ and then 150 μL of blocking buffer (TBS+ with 1% bovine serum albumin, Sigma A7906) was added. The plate was incubated for 1 hr at 37° C. and then washed 3× with TBS+ buffer. […] Compounds were diluted to 20 μM and 1 μL was added to each well of the plate according to a standard template with each sample repeated in triplicate. After incubation for two hours at room temperature, the plate was washed 3× with 150 μL of TBS+ buffer. To each well, 50 μL of biotinylated anti-αV antibody (R&D Systems, BAF1219) at 1 μg/mL in TBS+/0.1% BSA were added and the plate covered and incubated for 1 hr at room temperature. After washing the plate 3× with 150 μL of TBS+ buffer, 50 μL of streptavidin-conjugated horseradish peroxidase (R&D Systems, DY998) diluted in TBS+ blocking buffer were added to the wells and the plate incubated for 20 min at room temperature. The plate was washed 3× with TBS+ buffer followed by 50 μL of TMB substrate (Sigma, T4444) added to each well in the dark and the plate incubated for 25 min at room temperature. 25 μL of 1.0 M phosphoric acid was added as a stop solution and the plates were read at 450 nm using a Spectramax plate reader.
# T2 sequence (P06756 31-992 limits assumed): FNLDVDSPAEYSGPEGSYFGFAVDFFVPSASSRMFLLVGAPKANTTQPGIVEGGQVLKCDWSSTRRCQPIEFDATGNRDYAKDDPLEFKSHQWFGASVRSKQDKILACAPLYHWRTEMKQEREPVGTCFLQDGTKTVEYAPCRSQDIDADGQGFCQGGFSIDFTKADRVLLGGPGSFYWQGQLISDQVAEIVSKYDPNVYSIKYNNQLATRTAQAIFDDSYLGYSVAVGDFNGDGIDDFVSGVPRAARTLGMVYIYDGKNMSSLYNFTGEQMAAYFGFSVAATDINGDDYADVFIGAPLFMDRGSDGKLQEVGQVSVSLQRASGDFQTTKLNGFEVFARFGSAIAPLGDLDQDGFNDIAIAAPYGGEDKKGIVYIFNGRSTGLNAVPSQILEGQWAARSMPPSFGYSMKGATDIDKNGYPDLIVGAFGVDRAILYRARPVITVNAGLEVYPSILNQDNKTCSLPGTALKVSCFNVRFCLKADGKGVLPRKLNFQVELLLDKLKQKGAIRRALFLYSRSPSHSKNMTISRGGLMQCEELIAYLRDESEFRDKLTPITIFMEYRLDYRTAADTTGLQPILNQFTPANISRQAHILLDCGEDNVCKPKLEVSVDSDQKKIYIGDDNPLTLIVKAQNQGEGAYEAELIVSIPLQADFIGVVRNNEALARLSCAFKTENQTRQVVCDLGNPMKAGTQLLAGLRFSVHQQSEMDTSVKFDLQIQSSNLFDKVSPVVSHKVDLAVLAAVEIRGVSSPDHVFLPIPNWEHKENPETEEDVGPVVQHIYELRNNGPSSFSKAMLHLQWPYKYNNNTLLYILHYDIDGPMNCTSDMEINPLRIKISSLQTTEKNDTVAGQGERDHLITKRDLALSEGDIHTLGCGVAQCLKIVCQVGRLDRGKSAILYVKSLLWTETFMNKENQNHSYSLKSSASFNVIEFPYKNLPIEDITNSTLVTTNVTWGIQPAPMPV
# T2 sequence (P05556 21-728 limits assumed): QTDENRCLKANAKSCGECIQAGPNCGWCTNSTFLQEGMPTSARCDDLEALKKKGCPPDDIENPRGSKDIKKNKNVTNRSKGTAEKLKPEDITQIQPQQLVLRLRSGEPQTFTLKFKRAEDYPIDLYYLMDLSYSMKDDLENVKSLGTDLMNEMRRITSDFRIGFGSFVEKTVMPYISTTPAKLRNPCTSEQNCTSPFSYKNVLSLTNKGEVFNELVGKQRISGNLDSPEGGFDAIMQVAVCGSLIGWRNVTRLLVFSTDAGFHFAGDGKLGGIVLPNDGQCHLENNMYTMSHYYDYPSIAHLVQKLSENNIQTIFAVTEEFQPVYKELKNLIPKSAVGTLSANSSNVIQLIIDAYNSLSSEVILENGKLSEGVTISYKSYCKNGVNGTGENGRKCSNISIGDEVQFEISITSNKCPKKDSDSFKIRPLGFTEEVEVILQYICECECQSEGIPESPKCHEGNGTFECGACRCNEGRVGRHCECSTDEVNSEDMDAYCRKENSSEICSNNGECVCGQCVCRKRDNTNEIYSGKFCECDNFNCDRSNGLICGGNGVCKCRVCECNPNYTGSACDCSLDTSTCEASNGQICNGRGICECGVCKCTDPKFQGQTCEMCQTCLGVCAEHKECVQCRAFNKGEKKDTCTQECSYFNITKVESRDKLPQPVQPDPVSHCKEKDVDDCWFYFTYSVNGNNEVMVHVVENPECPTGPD
# T1 sequence (P06756 31-992 limits assumed): as the sequence (P06756 31-992 limits assumed) above
# T1 sequence (P05106 27-718 limits assumed): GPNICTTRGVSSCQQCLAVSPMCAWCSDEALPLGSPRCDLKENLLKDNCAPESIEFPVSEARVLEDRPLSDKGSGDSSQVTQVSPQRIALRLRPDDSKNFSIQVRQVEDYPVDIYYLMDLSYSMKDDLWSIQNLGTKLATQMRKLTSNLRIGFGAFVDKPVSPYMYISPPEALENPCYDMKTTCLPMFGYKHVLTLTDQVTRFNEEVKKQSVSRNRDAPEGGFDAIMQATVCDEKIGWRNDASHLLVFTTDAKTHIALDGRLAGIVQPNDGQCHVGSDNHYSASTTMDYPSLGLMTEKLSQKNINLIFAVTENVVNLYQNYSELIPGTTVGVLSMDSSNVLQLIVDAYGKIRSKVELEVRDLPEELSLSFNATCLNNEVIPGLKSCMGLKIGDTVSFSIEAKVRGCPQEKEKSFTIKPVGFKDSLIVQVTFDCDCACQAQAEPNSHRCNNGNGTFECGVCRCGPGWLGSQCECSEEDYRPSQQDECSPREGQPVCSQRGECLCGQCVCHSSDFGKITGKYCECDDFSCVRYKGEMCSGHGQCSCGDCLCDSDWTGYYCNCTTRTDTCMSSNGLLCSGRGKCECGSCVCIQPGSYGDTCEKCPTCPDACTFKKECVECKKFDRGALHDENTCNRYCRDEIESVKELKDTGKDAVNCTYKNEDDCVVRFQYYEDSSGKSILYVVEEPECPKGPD
SMILES,pIC50 [1],pIC50 [2]
"Cn1nc(CC(CC(=O)O)c2cc(C(C)(C)C#N)cc(C(C)(C)C#N)c2)cc1OCCc1ccc2c(n1)NCCC2 (stereo not shown) [Example 41, 3-(3,5-bis(2-cyanopropan-2-yl)phenyl)-4-(1-methyl-5-(2-(5,6,7,8-tetrahydro-1,8-naphthyridin-2-yl)ethoxy)-1H-pyrazol-3-yl)butanoic acid trifluoroacetate]",8.05,9.00
COc1ccc(C2=CCOCC2)cc1C(CC(=O)O)Cc1cc(OCCc2ccc3c(n2)NCCC3)n(C)n1 (stereo not shown) [Example 42],7.24,8.70
"COc1ccc(C2CCOCC2)cc1C(CC(=O)O)Cc1csc(CCCc2ccc3c(n2)NCCC3)n1 (stereo not shown) [Example 43, 3-(2-methoxy-5-(tetrahydro-2H-pyran-4-yl)phenyl)-4-(2-(3-(5,6,7,8-tetrahydro-1,8-naphthyridin-2-yl)propyl)thiazol-4-yl)butanoic acid]",6.28,8.52
"COc1ccc(C(CC(=O)O)Cc2cc(OCCc3ccc4c(n3)NCCC4)n(C)n2)cc1F (stereo not shown) [Example 44, 3-(3-fluoro-4-methoxyphenyl)-4-(1-methyl-5-(2-(5,6,7,8-tetrahydro-1,8-naphthyridin-2-yl)ethoxy)-1H-pyrazol-3-yl)butanoic acid]",8.64,8.49
"COCC1(c2ccc(OC)c(C(CC(=O)O)Cc3cc(OCCc4ccc5c(n4)NCCC5)n(C)n3)c2)CCOCC1 (stereo not shown) [Example 45, 3-(2-methoxy-5-(4-(methoxymethyl)tetrahydro-2H-pyran-4-yl)phenyl)-4-(1-methyl-5-(2-(5,6,7,8-tetrahydro-1,8-naphthyridin-2-yl)ethoxy)-1H-pyrazol-3-yl)butanoic acid]",5.92,8.66
"COc1ccc(C2CCOCC2)cc1C(CC(=O)O)Cc1cc(OCCc2ccc3c(n2)NCCC3)n(C)n1 (stereo not shown) [Example 46, 3-(2-methoxy-5-(tetrahydro-2H-pyran-4-yl)phenyl)-4-(1-methyl-5-(2-(5,6,7,8-tetrahydro-1,8-naphthyridin-2-yl)ethoxy)-1H-pyrazol-3-yl)butanoic acid]",6.51,8.55
Cn1nc(C[C@@H](CC(=O)O)c2cc3c(c(C(C)(C)C)c2)OCO3)cc1OCCc1ccc2c(n1)NCCC2 [Example 47],8.74,9.04
"COCC1(c2ccc(OC)c([C@H](CC(=O)O)Cc3cc(OCCc4ccc5c(n4)NCCC5)n(C)n3)c2)CCOCC1 [Example 48, (S)-3-(2-methoxy-5-(4-(methoxymethyl)tetrahydro-2H-pyran-4-yl)phenyl)-4-(1-methyl-5-(2-(5,6,7,8-tetrahydro-1,8-naphthyridin-2-yl)ethoxy)-1H-pyrazol-3-yl)butanoic acid]",6.16,8.62
